From patent US4855284A, “Calcium and magnesium complexes of phytohemagglutinin-polyheteroglycans, their preparation and pharmaceutical formulations” (Intex Pharmazeutische Produkte AG, priority 1985, dated 1989)

Experiments:
[1] = tested on: edema induced by carrageen in the rat paw; test: carrageen rat paw test (Winter), antiinflammatory action; type: in vivo, rat (female, CFY strain); conditions: 10 mg/kg oral
[2] = tested on: ulcers and mucosal edema in the stomach; test: alcohol ulcer test (Robert), cytoprotective action; type: in vivo, Wistar rats; conditions: oral 500 mg/kg, 10 animals
Method: The cytoprotective action was tested by the alcohol ulcer test of A. J. E. Robert and coworkers, Am. J. Physiol. […] Liver Physiol. […] Usually, Wistar rats in groups with 10 animals in each are kept without food for 1 day and then treated once through a stomach tube with 1 to 2 ml of anhydrous ethanol which contains 0.5% hydrochloric acid.
After the death of the animals, the length of the resulting ulcers and the size of the resulting mucosal edema in the stomach are measured and compared with control animals not treated with the product. A basic aluminum complex of sucrose polysulfate (sucralfate, see below) was used for comparison.

## COc1ccc2c(c1)c(CC(=O)O)c(C)n2C(=O)c1ccc(Cl)cc1 [Indomethacin]
[1]
  Inhibition in % (of swelling): 46%

## Sucralfate
[2]
  Inhibition in %, Edema: 79%
  Inhibition in %, Ulcer: 56%
